Measurements taken from the NIST ThermoML archive (doi:10.1016/j.jct.2008.07.011).
Numbers after ± are expanded uncertainties.

Assay: osmotic coefficient (dimensionless); mn = molality of the nth substance listed, in mol/kg
Settings: Liquid, vapor pressure osmometry

CCCCCCn1cc[n+](C)c1.[Br-] [3-hexyl-1-methyl-1H-imidazolium bromide] + O
osmotic coefficient
Settings | 298.15 K | 308.15 K | 318.15 K | 328.15 K
m1 = 0.0155 | 0.876 ± 0.035 | 0.889 ± 0.036 | 0.91 ± 0.037 | 0.935 ± 0.037
m1 = 0.021 | 0.869 ± 0.035 | 0.87 ± 0.035 | 0.876 ± 0.035 | 0.911 ± 0.037
m1 = 0.0305 | 0.854 ± 0.035 | 0.858 ± 0.035 | 0.866 ± 0.035 | 0.869 ± 0.035
m1 = 0.0467 | 0.835 ± 0.034 | 0.838 ± 0.034 | 0.848 ± 0.034 | 0.861 ± 0.035
m1 = 0.0633 | 0.815 ± 0.033 | 0.811 ± 0.033 | 0.816 ± 0.033 | 0.821 ± 0.033
m1 = 0.0819 | 0.761 ± 0.032 | 0.763 ± 0.032 | 0.8 ± 0.033 | 0.815 ± 0.033
m1 = 0.121 | 0.741 ± 0.031 | 0.742 ± 0.031 | 0.775 ± 0.032 | 0.79 ± 0.032
m1 = 0.158 | 0.703 ± 0.03 | 0.732 ± 0.031 | 0.754 ± 0.031 | 0.76 ± 0.032
m1 = 0.1845 | 0.708 ± 0.03 | 0.727 ± 0.031 | 0.742 ± 0.031 | 0.75 ± 0.031
m1 = 0.2503 | 0.67 ± 0.029 | 0.69 ± 0.03 | 0.702 ± 0.03 | 0.719 ± 0.03
m1 = 0.3312 | 0.65 ± 0.029 | 0.659 ± 0.029 | 0.672 ± 0.029 | 0.67 ± 0.029
m1 = 0.4111 | 0.602 ± 0.028 | 0.605 ± 0.028 | 0.625 ± 0.028 | 0.63 ± 0.028
m1 = 0.5114 | 0.554 ± 0.027 | 0.585 ± 0.028 | 0.589 ± 0.028 | 0.592 ± 0.028
m1 = 0.5898 | 0.54 ± 0.027 | 0.546 ± 0.027 | 0.555 ± 0.027 | 0.569 ± 0.027
m1 = 0.6829 | 0.517 ± 0.027 | 0.513 ± 0.027 | 0.537 ± 0.027 | 0.544 ± 0.027
m1 = 0.7428 | 0.488 ± 0.027 | 0.489 ± 0.027 | 0.509 ± 0.027 | 0.514 ± 0.027
m1 = 1.119 | 0.384 ± 0.027 | 0.397 ± 0.027 | 0.413 ± 0.027 | 0.429 ± 0.027
m1 = 1.686 | 0.312 ± 0.027 | 0.322 ± 0.027 | 0.352 ± 0.027 | 0.362 ± 0.027
m1 = 2.398 | 0.271 ± 0.028 | 0.292 ± 0.028 | 0.309 ± 0.027 | 0.328 ± 0.027

CCCCCn1cc[n+](C)c1.[Br-] [1-pentyl-3-methylimidazolium bromide] + O
osmotic coefficient
Settings | 298.15 K | 308.15 K | 318.15 K | 328.15 K
m1 = 0.0179 | 0.911 ± 0.037 | 0.987 ± 0.039 | 0.94 ± 0.038 | 1.01 ± 0.04
m1 = 0.025 | 0.925 ± 0.037 | 0.964 ± 0.039 | 0.924 ± 0.037 | 0.996 ± 0.04
m1 = 0.0301 | 0.906 ± 0.036 | 0.933 ± 0.037 | 0.912 ± 0.037 | 0.982 ± 0.039
m1 = 0.0518 | 0.878 ± 0.035 | 0.892 ± 0.036 | 0.895 ± 0.036 | 0.955 ± 0.038
m1 = 0.0722 | 0.861 ± 0.035 | 0.872 ± 0.035 | 0.882 ± 0.036 | 0.92 ± 0.037
m1 = 0.0904 | 0.852 ± 0.034 | 0.856 ± 0.035 | 0.871 ± 0.035 | 0.91 ± 0.037
m1 = 0.1155 | 0.826 ± 0.034 | 0.843 ± 0.034 | 0.857 ± 0.035 | 0.852 ± 0.034
m1 = 0.1697 | 0.808 ± 0.033 | 0.811 ± 0.033 | 0.831 ± 0.034 | 0.843 ± 0.034
m1 = 0.2113 | 0.793 ± 0.033 | 0.798 ± 0.033 | 0.816 ± 0.033 | 0.827 ± 0.034
m1 = 0.2308 | 0.785 ± 0.032 | 0.786 ± 0.032 | 0.813 ± 0.033 | 0.811 ± 0.033
m1 = 0.3311 | 0.745 ± 0.031 | 0.76 ± 0.032 | 0.776 ± 0.032 | 0.782 ± 0.032
m1 = 0.3787 | 0.726 ± 0.031 | 0.745 ± 0.031 | 0.762 ± 0.032 | 0.766 ± 0.032
m1 = 0.4716 | 0.704 ± 0.03 | 0.727 ± 0.031 | 0.749 ± 0.031 | 0.754 ± 0.031
m1 = 0.5627 | 0.694 ± 0.03 | 0.709 ± 0.03 | 0.72 ± 0.03 | 0.734 ± 0.031
m1 = 0.6532 | 0.679 ± 0.029 | 0.689 ± 0.03 | 0.697 ± 0.03 | 0.706 ± 0.03
m1 = 0.7246 | 0.669 ± 0.029 | 0.682 ± 0.03 | 0.692 ± 0.03 | 0.697 ± 0.03
m1 = 0.8353 | 0.657 ± 0.029 | 0.666 ± 0.029 | 0.68 ± 0.029 | 0.681 ± 0.029
m1 = 1.026 | 0.618 ± 0.028 | 0.637 ± 0.029 | 0.632 ± 0.028 | 0.649 ± 0.029
m1 = 1.509 | 0.583 ± 0.028 | 0.588 ± 0.028 | 0.594 ± 0.028 | 0.608 ± 0.028
m1 = 2.005 | 0.561 ± 0.027 | 0.565 ± 0.027 | 0.568 ± 0.027 | 0.594 ± 0.028
